Assay results from paper PMC5065774 (Bioorganic & medicinal chemistry, 2016).

Key:
[1] = test system: TALL-104 CTL human leukemia cells; test: Cytotoxic T-lymphocyte; type: cell-based; details: 100 μM
[2] = biological target: T1, HDAC6 (Homo sapiens, UniProt Q9UBN7); test: HDAC isozyme panel at BPS Bioscience, HDAC6; type: biochemical; details: read-out: % inhibition of HDAC6
T1 sequence (Q9UBN7 1-1215): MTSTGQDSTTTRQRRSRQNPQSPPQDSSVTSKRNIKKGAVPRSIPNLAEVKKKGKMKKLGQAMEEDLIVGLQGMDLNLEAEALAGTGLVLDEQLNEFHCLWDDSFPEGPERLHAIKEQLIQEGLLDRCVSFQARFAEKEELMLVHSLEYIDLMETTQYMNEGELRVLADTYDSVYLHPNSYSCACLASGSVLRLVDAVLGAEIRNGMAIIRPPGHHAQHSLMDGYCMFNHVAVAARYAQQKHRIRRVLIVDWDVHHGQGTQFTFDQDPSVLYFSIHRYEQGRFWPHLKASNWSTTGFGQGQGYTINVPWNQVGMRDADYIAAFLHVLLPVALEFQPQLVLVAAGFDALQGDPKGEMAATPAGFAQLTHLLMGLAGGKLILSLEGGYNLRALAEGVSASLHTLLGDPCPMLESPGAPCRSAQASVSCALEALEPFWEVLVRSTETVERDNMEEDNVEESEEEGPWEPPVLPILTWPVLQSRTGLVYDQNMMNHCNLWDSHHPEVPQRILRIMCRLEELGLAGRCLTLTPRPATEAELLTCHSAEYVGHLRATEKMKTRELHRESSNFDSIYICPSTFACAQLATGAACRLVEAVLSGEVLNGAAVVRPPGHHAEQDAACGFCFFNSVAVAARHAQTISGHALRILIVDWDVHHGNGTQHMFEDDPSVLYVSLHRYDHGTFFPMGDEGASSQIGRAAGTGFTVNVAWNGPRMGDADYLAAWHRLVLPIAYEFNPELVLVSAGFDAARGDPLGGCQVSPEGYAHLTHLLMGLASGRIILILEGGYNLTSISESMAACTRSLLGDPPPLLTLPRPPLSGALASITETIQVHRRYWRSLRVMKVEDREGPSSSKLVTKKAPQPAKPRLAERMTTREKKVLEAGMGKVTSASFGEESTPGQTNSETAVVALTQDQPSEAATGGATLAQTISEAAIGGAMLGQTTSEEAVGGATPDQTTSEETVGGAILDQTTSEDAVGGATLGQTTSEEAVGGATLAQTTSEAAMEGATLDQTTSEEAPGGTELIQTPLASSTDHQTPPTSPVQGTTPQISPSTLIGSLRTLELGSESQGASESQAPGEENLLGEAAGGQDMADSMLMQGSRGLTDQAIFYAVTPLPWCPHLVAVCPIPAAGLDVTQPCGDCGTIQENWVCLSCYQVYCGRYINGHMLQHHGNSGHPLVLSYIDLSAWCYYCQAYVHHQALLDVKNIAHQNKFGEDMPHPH

[3] = biological target: T2, HDAC10 (Homo sapiens, UniProt Q969S8); test: HDAC isozyme panel at BPS Bioscience, HDAC10; type: biochemical; details: read-out: % inhibition of HDAC10
T2 sequence (Q969S8 1-669): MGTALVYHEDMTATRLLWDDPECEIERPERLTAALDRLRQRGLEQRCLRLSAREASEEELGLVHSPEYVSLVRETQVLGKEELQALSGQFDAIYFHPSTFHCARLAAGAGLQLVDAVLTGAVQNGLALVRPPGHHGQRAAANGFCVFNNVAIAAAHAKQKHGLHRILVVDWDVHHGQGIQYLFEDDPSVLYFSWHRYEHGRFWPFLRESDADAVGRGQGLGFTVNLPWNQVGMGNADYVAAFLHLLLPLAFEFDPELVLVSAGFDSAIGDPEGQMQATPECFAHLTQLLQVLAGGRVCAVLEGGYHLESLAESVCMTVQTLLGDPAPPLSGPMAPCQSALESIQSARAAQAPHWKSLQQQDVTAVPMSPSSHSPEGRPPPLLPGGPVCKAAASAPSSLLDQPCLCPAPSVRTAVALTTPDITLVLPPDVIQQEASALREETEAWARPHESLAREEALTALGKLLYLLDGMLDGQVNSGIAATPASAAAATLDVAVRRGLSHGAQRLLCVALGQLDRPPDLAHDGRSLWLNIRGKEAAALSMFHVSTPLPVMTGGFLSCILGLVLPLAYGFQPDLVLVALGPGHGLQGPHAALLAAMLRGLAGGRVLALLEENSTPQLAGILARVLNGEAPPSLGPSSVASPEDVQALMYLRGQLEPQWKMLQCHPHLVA

[4] = biological target: HDAC1 (Homo sapiens, UniProt Q13547); test: HDAC isozyme panel at BPS Bioscience, HDAC1; type: biochemical; details: read-out: % inhibition of HDAC1
Sequence of HDAC1 (Q13547 whole entry): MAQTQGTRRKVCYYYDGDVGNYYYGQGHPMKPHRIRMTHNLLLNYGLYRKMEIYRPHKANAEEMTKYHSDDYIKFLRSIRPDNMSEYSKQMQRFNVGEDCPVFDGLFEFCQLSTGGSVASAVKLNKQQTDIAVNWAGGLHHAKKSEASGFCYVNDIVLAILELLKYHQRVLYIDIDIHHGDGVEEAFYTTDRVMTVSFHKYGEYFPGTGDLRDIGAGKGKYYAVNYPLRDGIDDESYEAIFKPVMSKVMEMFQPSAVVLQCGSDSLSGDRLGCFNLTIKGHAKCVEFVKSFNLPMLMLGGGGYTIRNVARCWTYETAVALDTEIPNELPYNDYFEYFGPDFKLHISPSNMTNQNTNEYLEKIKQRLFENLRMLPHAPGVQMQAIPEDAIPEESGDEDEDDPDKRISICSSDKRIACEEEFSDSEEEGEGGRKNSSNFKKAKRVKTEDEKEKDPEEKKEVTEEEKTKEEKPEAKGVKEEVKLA

[5] = biological target: HDAC3 (Homo sapiens, UniProt O15379); test: HDAC isozyme panel at BPS Bioscience, HDAC3; type: biochemical; details: read-out: % inhibition of HDAC3
Sequence of HDAC3 (O15379 whole entry): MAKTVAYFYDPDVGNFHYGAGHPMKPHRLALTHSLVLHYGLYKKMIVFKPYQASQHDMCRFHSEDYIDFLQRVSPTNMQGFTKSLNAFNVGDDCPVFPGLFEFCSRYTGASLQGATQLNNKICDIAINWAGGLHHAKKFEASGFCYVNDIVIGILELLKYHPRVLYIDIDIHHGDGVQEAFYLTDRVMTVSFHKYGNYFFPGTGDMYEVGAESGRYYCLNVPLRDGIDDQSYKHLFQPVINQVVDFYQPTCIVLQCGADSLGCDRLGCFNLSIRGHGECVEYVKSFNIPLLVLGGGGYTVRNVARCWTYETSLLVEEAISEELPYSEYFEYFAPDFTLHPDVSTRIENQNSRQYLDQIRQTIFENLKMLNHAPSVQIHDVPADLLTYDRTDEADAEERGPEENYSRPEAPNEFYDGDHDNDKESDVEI
Sequence of HDAC3 (Q9Y618 395-489 partner limits assumed): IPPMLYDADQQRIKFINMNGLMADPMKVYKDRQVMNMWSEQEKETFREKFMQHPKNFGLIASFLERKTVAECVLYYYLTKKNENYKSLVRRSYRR

CCOC(=O)NCCCC(=O)Nc1ccc(O[Si](C)(C)C(C)(C)C)cc1 [Compound 28, Ethyl (4-((4-((tert-butyldimethylsilyl)oxy)phenyl)amino)-4-oxobutyl)carbamate]
augmentation of CD3-stimulated anti-LAMP fluorescence increases (lytic granule exocytosis) [1]: 71%

CCOC(=O)NCCCC(=O)Nc1ccc(CO[Si](C)(C)C(C)(C)C)cc1 [Compound 27, Ethyl (4-((4-(((tert-butyldimethylsilyl)oxy)methyl)phenyl)amino)-4-oxobutyl)carbamate]
augmentation of CD3-stimulated anti-LAMP fluorescence increases (lytic granule exocytosis) [1]: 26%

O=C(CCCCCCC(=O)Nc1ccccc1)NO [SAHA, suberoylanilide hydroxamic acid]
inhibition at 10 µM [2]: 100% | inhibition at 10 µM [3]: 100% | inhibition at 10 µM [4]: 100 ± 0.3% | inhibition at 10 µM [5]: 99 ± 0.7%
